Source: patent US11028085B2, “Substituted isoindolin-1-ones and 2,3-dihydro-1h-pyrrolo[3,4-c]pyridin-1-ones as hpk1 antagonists” (Nimbus Saturn, Inc., priority 2019, dated 2021)

molecular target: HPK1 (Homo sapiens (Human), UniProt Q92918); assay: HPK1 biochemical enzyme assay (microfluidic mobility shift assay); conditions: 1.5 nM HPK1, ATP 1 mM final, 60 min at RT, Caliper EZ Reader; read-out: HPK1 1000UMATP caliper IC50
Procedure: HPK1 biochemical enzyme assay: HPK1 enzyme inhibition was measured using a microfluidic mobility shift assay. […] Test compounds were titrated in ten point curves (top final assay concentration […]), and preincubated with enzyme/substrate mix for 30 min prior to initiation of the reaction by addition of ATP (1 mM final concentration) and substrate (1 μM final concentration; Carna Biosciences) diluted in assay buffer supplemented by MgCl2 (final assay concentration of 5 mM). Following 60 min incubation at RT, the reaction was terminated by addition of 60 µl/well termination buffer (Carna Biosciences) and signal determination using a Caliper EZ Reader (Perkin Elmer, UK). […] The compound numbers correspond to the compound numbers in Table 1.

Chain of HPK1 (Q92918 whole entry): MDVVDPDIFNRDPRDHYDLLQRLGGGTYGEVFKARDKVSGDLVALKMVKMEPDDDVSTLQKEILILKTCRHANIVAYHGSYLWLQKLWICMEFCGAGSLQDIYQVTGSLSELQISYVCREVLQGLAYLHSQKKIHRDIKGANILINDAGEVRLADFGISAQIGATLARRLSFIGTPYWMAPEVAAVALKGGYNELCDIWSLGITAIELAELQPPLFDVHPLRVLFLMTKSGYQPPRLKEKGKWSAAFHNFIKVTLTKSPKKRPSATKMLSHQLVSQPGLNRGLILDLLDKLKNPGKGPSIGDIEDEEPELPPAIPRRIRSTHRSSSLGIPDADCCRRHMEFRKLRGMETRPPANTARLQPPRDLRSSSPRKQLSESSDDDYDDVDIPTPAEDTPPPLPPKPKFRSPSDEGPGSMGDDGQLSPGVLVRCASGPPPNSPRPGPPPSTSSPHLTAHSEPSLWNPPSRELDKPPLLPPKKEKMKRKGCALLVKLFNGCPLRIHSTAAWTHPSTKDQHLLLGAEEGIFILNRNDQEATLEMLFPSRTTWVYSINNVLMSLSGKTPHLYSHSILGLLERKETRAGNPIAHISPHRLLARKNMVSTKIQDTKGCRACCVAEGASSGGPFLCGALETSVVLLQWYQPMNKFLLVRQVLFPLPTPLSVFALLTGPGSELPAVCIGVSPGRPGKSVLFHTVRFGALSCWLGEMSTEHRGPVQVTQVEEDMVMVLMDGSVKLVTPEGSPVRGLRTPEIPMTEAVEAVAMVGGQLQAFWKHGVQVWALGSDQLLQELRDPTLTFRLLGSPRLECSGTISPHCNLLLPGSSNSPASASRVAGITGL

Row | Compound | IC50 [nM]
1 | Cn1ccc2c(-c3ncc(Nc4ccc(N5CCNCC5)cn4)c4c3CNC4=O)cccc21 [I-266, 4-(1-methyl-1H-indol-4-yl)-7-((5-(piperazin-1-yl)pyridin-2-yl)amino)-2,3-dihydro-1H-pyrrolo[3,4-c]pyridin-1-one] | < 100
2 | O=C1NCc2c(-c3cnc4cc(F)ccn34)ccc(Nc3ccc(C4CCOCC4)cn3)c21 [I-341] | < 100
3 | O=C1NCc2c(-c3cnc4cc(F)ccn34)ccc(Nc3ccn(C4CCOCC4)n3)c21 [I-382, 4-(7-fluoroimidazo [1,2-a]pyridin-3-yl)-7-((1-(tetrahydro-2H-pyran-4-yl)-1H-pyrazol-3-yl)amino)isoin-dolin-1-one] | > 1000
4 | O=C1NCc2c(-c3ncc4cnccn34)ccc(Nc3ccc(N4CCC(O)CC4)cn3)c21 [I-398, 7-((5-(4-hydroxypipendin-1-yl)pyridin-2-yl)amino)-4-(imidazo[1,5-a]pyrazin-3-yl)isoindolin-1-one] | 100 to 1000
5 | CC(C)(O)[C@H]1CN(c2ccc(Nc3ccc(-c4cnc5cnccn45)c4c3C(=O)NC4)nc2)CCO1 [I-486, 7-[[5-[(2R)-2-(1-hydroxy-1-methylethyl)morpholin-4-yl]-2-pyridyl]amino]-4-imidazo[1,2-a]pyrazin-3-yl-isoindolin-1-one] | < 100
6 | O=C1NCc2c(-c3cnc4cc(F)ccn34)ccc(Nc3ccc(N4CCC(N5CCOCC5)CC4)cn3)c21 [I-488, 4-(7-fluoroimidazo [1,2-a]pyridin-3-yl)-7-[[5-(4-morpholino-1-piperidyl)-2-pyridyl]amino] isoindolin-1-one] | < 100
7 | Cc1cccn2c(-c3ncc(Nc4ccc(C5CCOC5)c(CN(C)C)n4)c4c3CNC4=O)cnc12 (stereo not drawn) [I-539] | < 100
8 | C[C@@H]1CN(c2ccc(Nc3ccc(-c4cnc5cc(F)ccn45)c4c3C(=O)NC4)nc2CN(C)C)CCO1 [I-541, 7-[[6-[(dimethylamino)-methyl]-5-[(2R)-2-methylmorpho-lin-4-yl]-2-pyridyl]amino] 4-(7-fluoroimidazo [1,2-a]pyridin-3-yl)isoindolin-1-one] | < 100
9 | Cn1ccc2c(-c3ncc(Nc4ccc(C5CCOC5)c(CN5CCCC5)n4)c4c3CNC4=O)ccnc21 (stereo not drawn) [I-552, 4-(1-methylpyrrolo [2,3-b]pyridin-4-yl)-7-[[6-(pyrrolidin-1-ylmethyl)-5-tetralndrofuran-3-yl-2-pyridyl]amino]-2,3-dihydropyrrolo [3,4-c]pyridin-1-one] | < 100
10 | O=C1NCc2c(-c3cnc4cc(F)ccn34)ccc(Nc3ccc(N4CCO[C@H]5CNC[C@H]54)cn3)c21 [I-694, 4-(7-fluoroimidazo [1,2-a]pyridin-3-yl)-7-((5-((4aR,7aS)-hexahydro-pyrrolo[3,4-b][1.4]oxazin-4(4aH)-yl)pyridin-2-yl)amino)isoin-dolin-1-one] | < 100

Further lines, results first:

Row | IC50 [nM] | Compound
11 | < 100 | Cc1ccc2c(-c3ccc(Nc4ccc(CN5CCOCC5)cn4)c4c3CNC4=O)cnn2c1 [I-469, 4-(6-methylpyrazolo[1,5-a]pyridin-3-yl)-7-[[5-(morpholino-methyl)-2-pyridyl]amino] isoindolin-1-one]
12 | 100 to 1000 | Cc1ccn2c(-c3ncc(Nc4cccc(N5CC[C@@H]6CNC[C@@H]65)n4)c4c3CNC4=O)cnc2c1F [I-480, 7-[[6-[(3aR,6aR)-3.3a,4,5,6.6a-hexahydro-2H-pyrrolo[2,3-c]pyrrol-1-yl]-2-pyridyl]amino]-4-(8-fluoro-7-methyl-imidazo[1,2-a]pyridin-3-yl)-2,3-dihydropyrrolo [3,4-c]pyridin-1-one]
13 | < 100 | Cc1ccn2c(-c3ncc(Nc4cccc(N5CCC6CNCC65)n4)c4c3CNC4=O)cnc2c1F (stereo not drawn) [I-481]
14 | < 100 | O=C1NCc2c(-c3cnc4cc(F)ccn34)ccc(Nc3ccc(N4CCO[C@@H]5CNC[C@@H]54)cn3)c21 [I-690]
15 | < 100 | CN1CCN(c2nc(Nc3ccc(-c4cnc5cc(F)ccn45)c4c3C(=O)NC4)ccc2[C@H]2CCOC2)CC1 [I-801, (R)-4-(7-fluoroimidazo [1,2-a]pyridin-3-yl)-7-((6-(4-methylpiperazin-1-yl)-5-(tetrahydrofuran-3-yl)pyridin-2-yl)amino)isoin-dolin-1-one]
